One data set deals with rats. Put plainly: reflex inhibition and antinociception after intravenous and intrathecal injection in rats. It is filed as in vivo. The settings on record: for antinociceptive efficacy: after intrathecal injection; for reflex inhibitory potency: intravenous and intrathecal injection.
For data set [1] the following is noted: compared with prediction and with morphine; cited from earlier work.
In the next data set the target is µ receptors (Homo sapiens, UniProt P35372). The settings on record: binding studies; cited from earlier work.
Sequence of µ receptors (P35372 whole entry): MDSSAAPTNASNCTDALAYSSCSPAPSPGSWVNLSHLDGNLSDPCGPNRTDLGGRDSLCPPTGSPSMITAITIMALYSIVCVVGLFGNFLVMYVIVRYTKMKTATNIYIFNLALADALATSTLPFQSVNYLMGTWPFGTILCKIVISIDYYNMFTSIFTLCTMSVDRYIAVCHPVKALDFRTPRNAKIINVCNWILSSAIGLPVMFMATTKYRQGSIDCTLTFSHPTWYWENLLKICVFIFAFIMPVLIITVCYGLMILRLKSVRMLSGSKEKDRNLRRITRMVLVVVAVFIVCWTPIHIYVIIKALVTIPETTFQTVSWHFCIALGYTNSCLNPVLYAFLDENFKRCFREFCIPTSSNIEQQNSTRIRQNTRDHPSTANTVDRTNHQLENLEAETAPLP
In another data set the target is δ receptors (Homo sapiens, UniProt P41143). Particulars: binding studies; cited from earlier work.
Sequence of δ receptors (P41143 whole entry, looked up): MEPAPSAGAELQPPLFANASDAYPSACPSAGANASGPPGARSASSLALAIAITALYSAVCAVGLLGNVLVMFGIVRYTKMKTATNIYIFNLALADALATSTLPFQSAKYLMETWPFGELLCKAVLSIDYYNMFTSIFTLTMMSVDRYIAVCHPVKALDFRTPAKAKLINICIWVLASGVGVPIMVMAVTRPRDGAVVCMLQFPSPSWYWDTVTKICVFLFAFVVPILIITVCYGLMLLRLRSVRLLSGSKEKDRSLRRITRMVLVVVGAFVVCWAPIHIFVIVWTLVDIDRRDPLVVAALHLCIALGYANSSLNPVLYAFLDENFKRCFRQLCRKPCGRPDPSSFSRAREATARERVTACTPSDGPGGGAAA
In the next data set the target is κ receptors (Homo sapiens, UniProt P41145). The settings on record: binding studies; cited from earlier work.
Sequence of κ receptors (P41145 whole entry, looked up): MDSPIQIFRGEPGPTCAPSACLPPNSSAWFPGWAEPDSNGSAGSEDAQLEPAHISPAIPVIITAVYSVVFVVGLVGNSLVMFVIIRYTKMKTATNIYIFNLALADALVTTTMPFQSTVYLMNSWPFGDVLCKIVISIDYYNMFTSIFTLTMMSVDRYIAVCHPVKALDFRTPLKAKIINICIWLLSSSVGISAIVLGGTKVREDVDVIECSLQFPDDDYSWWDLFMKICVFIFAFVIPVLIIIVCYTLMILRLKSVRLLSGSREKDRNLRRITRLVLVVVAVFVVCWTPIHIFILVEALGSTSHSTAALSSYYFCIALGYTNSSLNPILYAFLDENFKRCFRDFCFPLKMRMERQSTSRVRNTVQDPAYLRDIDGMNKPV
For data set [2] the following is noted: cited from earlier work.
The conditions of data set [3]: more potent than morphine; cited from earlier work.
For data set [4] the following is noted: more potent than morphine; cited from earlier work. This is another data set of the same source.
The test system of data set [5] is homogenate of bovine caudate nucleus. Particulars: cited from earlier work.
A further data set concerns mice. The settings on record: cited from earlier work.
The conditions of data set [6]: pH of 7.4; relative to morphine; cited from earlier work.

Read-outs that look alike come from different tables or passages of the source.

Consider `COc1ccc2c3c1O[C@H]1[C@@H](NC(=O)c4cccnc4)CC[C@H]4[C@@H](C2)N(C)CC[C@@]341` [7,8-dihydro-6α-nicotinoylaminocodeine], for which, in the data set with rats, the antinociceptive efficacy entry was “long-lasting antinociceptive efficacy” and the reflex inhibitory potency result was “strong reflex inhibitory potency”.
For `CN1CC[C@]23c4c5ccc(O)c4O[C@H]2[C@@H](NC(=O)c2cccnc2)CC[C@H]3[C@H]1C5` [7,8-dihydro-6α-nicotinoylaminomorphine] the same measures were “long-lasting antinociceptive efficacy” and “strong reflex inhibitory potency”.
For the molecule `CN1CC[C@]23c4c5ccc(O[C@@H]6O[C@H](C(=O)O)[C@@H](O)[C@H](O)[C@H]6O)c4O[C@H]2[C@@H](O)C=C[C@H]3[C@H]1C5` [Example M-3-G], in data set [1], the lipophilicity result is on record as “far more lipophilic than predicted”. On µ receptors, the “affinity, µ receptors” value is “poor affinity”. Besides, at δ receptors, the “affinity, δ receptors” value is listed as “poor affinity”. Further, the “affinity, κ receptors” value on κ receptors was “poor affinity”. Besides, the effect of microinjection result in data set [2] (microinjection directly into the periaquaductal grey) is “without effect”.
In the case of `CN1CC[C@]23c4c5ccc(O)c4O[C@H]2[C@@H](O[C@@H]2O[C@H](C(=O)O)[C@@H](O)[C@H](O)[C@H]2O)C=C[C@H]3[C@H]1C5` [Example M-6-G, morphine-6-glucuronide], in data set [1], the lipophilicity entry was “far more lipophilic than predicted”. The “antinociceptive potency relative to morphine, writhing” value in data set [3] is reported as 45 fold. Further, in [4], the “antinociceptive potency relative to morphine, tail-flick” value is on record as 61 fold. In addition, in data set [5], the “ability to displace ³H-naloxone” value is recorded as “comparable to that of morphine”. On δ receptors, the “affinity, δ receptors” value was “not”. Besides, in data set [2] (high doses), the seizure activity result is “profound seizure activity”. Moreover, the “potency relative to morphine following microinjection” value in data set [2] (microinjection into the periaquaductal grey) was “up to 20 fold”. Further, the “analgesic potency relative to morphine” value in the data set with mice (given intrathecally) is recorded as 90 fold; with mice (given intravenously), 650 fold. For the same molecule, the “analgesic effectiveness at the level of the spinal cord versus supraspinally” value in the data set with mice (spinal cord compared with supraspinal) is “approximately 5 fold”. Also, the “analgesia, effect relative to morphine” value in the data set on mice (subcutaneous administration, mice) was “approximately twice”.
Turning to `CN1CC[C@]23c4c5ccc(O)c4O[C@H]2[C@@H](O)C=C[C@H]3[C@H]1C5` [morphine], the “analgesic potency at both levels of the neuraxis” value in the data set on mice (mouse, in vivo) is reported as “equipotent”.
For the molecule `CN1CC[C@]23c4c5ccc(OC(=O)c6cccnc6)c4O[C@H]2[C@@H](OC(=O)c2cccnc2)C=C[C@H]3[C@H]1C5` [nicomorphine, 3,6-dinicotinoyl-morphine], the “lipid solubility higher than that of morphine” value in [6] is on record as “about 10 fold”.

The values above are taken from patent EP0632041A1, “New morphine derivatives having improved analgesic and narcotic properties” (priority 1993, dated 1995).
